Here are results for six compounds from patent US9963467B2, “Boronic acid derivatives and therapeutic uses thereof” (Rempex Pharmaceuticals, Inc., priority 2014, dated 2018).

Molecules are shown by their SMILES.

What all share (assay type): in vitro ADME
Data set [1] is described as follows: Serum stability of prodrugs, human serum. As to conditions: theoretical initial conc. 20 ug/mL; for Measured Initial Conc. in Serum: 37 degrees; for Conc. at t = 1 hr: prodrug.
The nature of data set [2]: Serum stability of prodrugs, human serum. Conditions: human serum; prodrug; theoretical initial conc. 20 ug/mL. Here is the method:
(§1) Prodrug strategy is one of the ways to achieve or increase oral bioavailability for therapeutic drugs. […] After a prodrug molecule is absorbed into systemic circulation, it should be hydrolyzed in the blood in order to release the active form. Hydrolysis of several prodrugs by rat and human serum were evaluated.
(§2) For all stability experiments the test compounds were treated with rat or human serum in Eppendorf tubes. Typically, 992 μl of serum was prewarmed at 37 degrees for 2 minutes and then 8 μl of a compound (at 5 mg/ml, 125×) was added to it to get a final concentration of […] and immediately mixed. Alternatively, serum stability might be tested at 1 mg/ml. […] After vortexing for 30 seconds, the tube was centrifuged in a microcentrifuge for 10 minutes at 15K rpm. Next, 100 μl of the supernatant was combined with 600 μl of water and injected on LC-MS using 0.1% formic acid in water for mobile phase A and 0.1% formic acid in methanol for mobile phase B on an ACE 5 C18 2.1×100 mm column with a 10 μL injection. The flow rate and gradient were adjusted as needed to give the desired resolution and run time. The pH of the mobile phase was adjusted if needed to improve the chromatography.
(§3) The time course of both the disappearance of a prodrug and the appearance of the active form of that prodrug is presented in Table 6 and Table 7. The active metabolites for all of the listed prodrugs are corresponding parent drugs

Data set [3] is described as follows: Serum stability of prodrugs, rat serum. Conditions: theoretical initial conc. 20 ug/mL; for Measured Initial Conc. in Serum: 37 degrees; for Conc. at t = 1 hr / Conc. at t = 3 hr: prodrug. The method, then: as §1, §2, §3

With `CCC(=O)OCOC(=O)c1c(F)ccc2c1OB(O)[C@@H](NC(=O)CSC)C2` [Compound 16, (R)-propionyloxymethyl 7-fluoro-2-hydroxy-3-(2-(methylthio)acetamido)-3,4-dihydro-2H-benzo[e][1,2]oxaborinine-8-carboxylate], in data set [1], the “Measured Initial Conc. in Serum” value was 20.7 µg/mL and the “Conc. at t = 1 hr” value turned out to be 2290 ng/mL. The “Conc. at t = 3 hr” value in data set [2] turned out to be 270 ng/mL. Further, in data set [3], the “Measured Initial Conc. in Serum” value was determined as 20.2 µg/mL, the “Conc. at t = 1 hr” value is 400 ng/mL and the “Conc. at t = 3 hr” value turned out to be 0 ng/mL.

Regarding `CSCC(=O)N[C@H]1Cc2ccc(F)c(C(=O)OCOC(=O)C(C)C)c2OB1O` [Compound 17, (R)-isobutyryloxymethyl 7-fluoro-2-hydroxy-3-(2-(methylthio)acetamido)-3,4-dihydro-2H-benzo[e][1,2]oxaborinine-8-carboxylate], the “Measured Initial Conc. in Serum” value in data set [1] was determined as 9.74 µg/mL; in data set [3], 9.22 µg/mL. Moreover, the entries for the “Conc. at t = 1 hr” value in data set [1] and in data set [3] were 1180 ng/mL and 1350 ng/mL, respectively. The “Conc. at t = 3 hr” value in data set [2] is 160 ng/mL.

As to `CSCC(=O)N[C@H]1Cc2ccc(F)c(C(=O)OCOC(=O)C(C)(C)C)c2OB1O` [Compound 18, (R)-pivaloyloxymethyl 7-fluoro-2-hydroxy-3-(2-(methylthio)acetamido)-3,4-dihydro-2H-benzo[e][1,2]oxaborinine-8-carboxylate], the “Measured Initial Conc. in Serum” value stood at 16.3 µg/mL in data set [1] and 14.6 µg/mL in data set [3]. The “Conc. at t = 1 hr” value in data set [1] is 11600 ng/mL; in data set [3] it was 9390 ng/mL. The figures for the “Conc. at t = 3 hr” value in data set [2] and in data set [3] were 6270 ng/mL and 3290 ng/mL, respectively.

For `CCOC(=O)OCOC(=O)c1c(F)ccc2c1OB(O)[C@@H](NC(=O)CSC)C2` [Compound 19, (R)-(ethoxycarbonyloxy)methyl 7-fluoro-2-hydroxy-3-(2-(methylthio)acetamido)-3,4-dihydro-2H-benzo[e][1,2]oxaborinine-8-carboxylate], the “Measured Initial Conc. in Serum” value in data set [1] stood at 20.3 µg/mL; in data set [3], 17.4 µg/mL. Further, the results for the “Conc. at t = 1 hr” value in data set [1] and in data set [3] were 6110 ng/mL and 0 ng/mL, respectively. Moreover, the entries for the “Conc. at t = 3 hr” value in data set [2] and in data set [3] were 1170 ng/mL and 0 ng/mL, respectively.

Regarding `COc1ccc2c(c1C(=O)OCOC(=O)OC(C)C)OB(O)[C@@H](NC(=O)CSC)C2` [Compound 40, isopropoxycarbonyloxymethyl(3R)-2-hydroxy-7-methoxy-3-[(2-methylsulfanylacetyl)amino]-3,4-dihydro-1,2-benzoxaborinine-8-carboxylate], in data set [1], the “Measured Initial Conc. in Serum” value came out at 24.8 µg/mL and the “Conc. at t = 1 hr” value is 23600 ng/mL. Further, in data set [2], the “Conc. at t = 3 hr” value was 19000 ng/mL. In addition, in data set [3], the “Measured Initial Conc. in Serum” value is 25.9 µg/mL, the “Conc. at t = 1 hr” value came to 2710 ng/mL and the “Conc. at t = 3 hr” value worked out at 740 ng/mL.

`CCOC(=O)OCOC(=O)c1c(OC)ccc2c1OB(O)[C@@H](NC(=O)CSC)C2` [Compound 41, ethoxycarbonyloxymethyl(3R)-2-hydroxy-7-methoxy-3-[(2-methylsulfanylacetyl)amino]-3,4-dihydro-1,2-benzoxaborinine-8-carboxylate]: the figures for the “Measured Initial Conc. in Serum” value in data set [1] and in data set [3] were 24.4 µg/mL and 20.6 µg/mL, respectively. Besides, the “Conc. at t = 1 hr” value in data set [1] amounted to 20800 ng/mL; in data set [3] it was 400 ng/mL. Moreover, the “Conc. at t = 3 hr” value in data set [2] turned out to be 20900 ng/mL; in data set [3], 0 ng/mL.
